Literature values as cited in patent US20030039701A1 (priority 2000, published 2003).
Like-named read-outs stand apart in the source and are kept apart here.

Legend:
[1] = 300 mg/wk for six weeks; TE: shoulders; ND: shoulders and chest
[2] = system: HIV-infected men; conditions: pharmacological doses
[3] = system: young female rats; conditions: mini-osmotic pumps
[4] = system: hypogonadal men; conditions: Caucasian group
[5] = system: patients on dialysis; conditions: compared with placebo
[6] = not given; remark: listed apart in the source
[7] = supplementation
[8] = system: levator ani muscles
[9] = system: prostate and seminal vesicle weights
[10] = system: androgen receptor; conditions: seminal vesicle
[11] = biological target: T1, aromatase (Homo sapiens, UniProt P11511); conditions: relative to chrysin, AG, ANG
T1 sequence (P11511 1-503): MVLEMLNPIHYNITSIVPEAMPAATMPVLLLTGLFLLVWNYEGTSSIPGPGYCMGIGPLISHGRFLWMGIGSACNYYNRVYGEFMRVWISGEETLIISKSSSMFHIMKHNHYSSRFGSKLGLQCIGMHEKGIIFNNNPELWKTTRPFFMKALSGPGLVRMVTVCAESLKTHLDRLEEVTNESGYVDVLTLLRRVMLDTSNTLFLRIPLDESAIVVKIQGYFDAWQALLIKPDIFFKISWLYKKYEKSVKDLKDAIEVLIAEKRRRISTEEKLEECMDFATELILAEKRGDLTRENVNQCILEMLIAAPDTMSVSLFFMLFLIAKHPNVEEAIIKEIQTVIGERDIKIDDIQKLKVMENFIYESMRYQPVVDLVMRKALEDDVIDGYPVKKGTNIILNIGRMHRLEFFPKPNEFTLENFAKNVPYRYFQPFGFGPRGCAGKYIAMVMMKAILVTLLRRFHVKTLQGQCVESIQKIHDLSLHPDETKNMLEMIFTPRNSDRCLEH

For `CCCCCCCCCC(=O)O[C@H]1CC[C@H]2[C@@H]3CCC4=CC(=O)CC[C@@H]4[C@H]3CC[C@]12C` [ND, 19-nor-testosterone decanoate], the “body circumferences (of fifteen)” value [1] is listed as “significant increases” and the “total weight, lean body mass, body cell mass, muscle size and strength” value [2] is listed as “significant gains”.

For `C[C@]12CC[C@H]3[C@@H](CC=C4C[C@@H](O)CC[C@@]43C)[C@@H]1CC[C@@H]2O` [5-androstenediol], the “proportion of protein in the body composition” value [3] is listed as “increased the proportion of protein”.

In the case of `CCCCCCC(=O)O[C@H]1CC[C@H]2[C@@H]3CCC4=CC(=O)CC[C@]4(C)[C@H]3CC[C@]12C` [TE, testosterone enanthate], the “sexual interest and activity, spontaneous erection” value [4] is given as “significant increases” and the “body circumferences (of fifteen)” value [1] is given as “significant increases”.

For `C[C@]12CC[C@H](O)CC1=CC[C@@H]1[C@@H]2CC[C@]2(C)C(=O)CC[C@@H]12` [DHEA, dehydro-epiandrosterone], the plasma testosterone (50 mg dose) is listed as “restored plasma testosterone to levels similar to those observed in young women” and the plasma testosterone (200 mg dose) is listed as “slightly below the levels observed in normal men”.

For `C[C@]12CC[C@H]3[C@@H](CCC4=CC(=O)CC[C@@H]43)[C@@H]1CC[C@@H]2O` [nandrolone, 19-nor-testosterone], the energy expenditure [3] is listed as “increased energy expenditure”, the lean body mass [5] is listed as “increased significantly” and the “decrease in HDL-cholesterol” value ([6]; body builders) is listed as 25-27%. The “decrease in diastolic blood pressure” value ([6]; body builders) was 25-27% and the “azoospermia (lack of sperm)” value ([6]; nandrolone use) was “azoospermia”.

For `C[C@]12CC[C@H]3[C@@H](CCC4=C[C@@H](O)CC[C@@]43C)[C@@H]1CC[C@@H]2O` [4-androstenediol], the “urine testosterone concentration relative to 4-androstenedione” value [7] is listed as 10 fold.

For `C[C@@H]1CC2=CC(=O)CC[C@@H]2[C@H]2CC[C@]3(C)[C@@H](O)CC[C@H]3[C@@H]21` [MENT, 7α-methyl-19-nor-testosterone], the “anabolic potency relative to testosterone” value [8] is listed as “ten-times as potent as testosterone”, the “androgenic potency relative to testosterone” value [9] is listed as “four- to five-times more androgenic than testosterone” and the “sexual interest and activity, spontaneous erection” value [4] is listed as “significant increases”.

In the case of `C[C@]12CC[C@H]3[C@@H](CCC4=CC(=O)CC[C@@]43C)[C@@H]1CC[C@@H]2O` [testosterone], the “change of affinity to the androgen receptor on conversion by 5-α-reductase” value [10] is given as “increasing by seven- to eight-fold” and the “proportion of protein in the body composition” value [3] is given as “increased the proportion of protein”.

For `COc1ccc(-c2coc3cc(O)cc(O)c3c2=O)cc1` [Biochanin A, 5,7-dihydroxy-4′-methoxyisoflavone], the “aromatase inhibition” value [11] is listed as “inhibited aromatase, but to a lesser degree”.
